Molecules are shown by their SMILES.

One data set concerns the target SARS-CoV-2 3CLpro (Severe acute respiratory syndrome coronavirus 2, UniProt P0DTD1). Briefly: biochemical. Format: biochemical.
The nature of data set [1]: Nonspecific cytotoxic effects / in vitro cytotoxicity. Type of data set: cell-based. The following applies: human, HEK293T cells.
A further data set addresses MERS-CoV 3CLpro (Middle East respiratory syndrome-related coronavirus, UniProt K9N7C7). Briefly: biochemical.
A further data set has as its system PRRSV. Briefly: Inhibition of replication of PRRSV. Format: cell-based, porcine respiratory and reproductive syndrome virus (PRRSV).

Chain of MERS-CoV 3CLpro (K9N7C7 3248-3553 limits assumed): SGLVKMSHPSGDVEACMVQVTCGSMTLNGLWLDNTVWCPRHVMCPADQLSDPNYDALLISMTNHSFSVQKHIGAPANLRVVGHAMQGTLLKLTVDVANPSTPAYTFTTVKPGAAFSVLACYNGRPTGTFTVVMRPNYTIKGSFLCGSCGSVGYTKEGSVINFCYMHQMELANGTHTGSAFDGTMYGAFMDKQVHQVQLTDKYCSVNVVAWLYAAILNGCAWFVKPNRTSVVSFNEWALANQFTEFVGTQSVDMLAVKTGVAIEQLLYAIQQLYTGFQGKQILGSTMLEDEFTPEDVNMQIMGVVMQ

Consider `CC(C)C[C@H](NC(=O)OC(C)(C)C1CCC(F)(F)CC1)C(=O)N[C@@H](C[C@@H]1CCNC1=O)C(O)S(=O)(=O)[O-].[Na+]` (stereo partly drawn) [Compound 13c, Sodium (2S)-2-((S)-2-((((2-(4,4-difluorocyclohexyl)propan-2-yl)oxy)carbonyl)amino)-4-methylpentanamido)-1-hydroxy-3-((S)-2-oxopyrrolidin-3-yl)propane-1-sulfonate], for which the “IC50 higher than those of 12b and 14c” value against SARS-CoV-2 3CLpro is reported as ~ 4 fold.
Broadly, the CC50 is the concentration at which the toxic effect on the cells reaches its halfway point. A low value points to greater toxicity to the cells. The term IC50 denotes the midpoint of a concentration-inhibition curve. Take `CCCC1CCC(COC(=O)NC(CC(C)C)C(=O)NC(C=O)CC2CCNC2=O)CC1` [Compound 8b, ((1r,4R)-4-Propylcyclohexyl) methyl ((2S)-4-methyl-1-oxo-1-(((2S)-1-oxo-3-(2-oxopyrrolidin-3-yl)propan-2-yl)amino)pentan-2-yl) carbamate]: half-maximal cytotoxicity in data set [1] (CC50 at 72 h) was put at 43000 ± 9000 nM. For the same compound, the IC50 at MERS-CoV 3CLpro came to 60 ± 10 nM; at SARS-CoV-2 3CLpro, 200 ± 30 nM.
Turning to `CC(C)C[C@H](NC(=O)OCc1ccccc1)C(=O)N[C@@H](C[C@@H]1CCNC1=O)C(O)S(=O)(=O)[O-].[Na+]` (some centres unmarked) [GC376], the “inhibition of the replication of PRRSV” value in the data set with PRRSV is listed as “none of them resulted in the reduction of viral replication”.

(Values after article PMC8673480 (Journal of medicinal chemistry, 2021).)
